According to US20240377399A1, “COMPOSITIONS AND METHODS FOR MODULATING HYDROXYLATION OF ACC2 BY PHD3” (President and Fellows of Harvard College, priority 2015, published 2024):
Entries after “also recorded” stand apart in the source; their conditions may differ.

What was measured:
MOLM14 cells [1] = assay: Palmitate oxidation (FAO assay); type: cell-based, human; conditions: S2E 50 μM for 3 days; 3 h incubation with radiolabeled palmitate
Experimental: FIG. 15 includes 10 panels, FIGS. 15A-J, showing PHD3 modulation in leukemia cell lines. FIG. 15A, PHD3 expression in MOLM14 and THP1 cells following stable overexpression of vector or PHD3 (n=3). FIG. 15B, Palmitate oxidation in HepG2 cells treated with etomoxir during the 2 h FAO assay (100 μM, n=3). FIG. 15C and FIG. 15D, PHD3 expression and growth curves in K562 cells following stable overexpression of PHD3 or vector (n=3). FIG. 15E, Growth curves of K562 cells stably expressing shRNA against PHD3 or control (n=3). FIG. 15F, Colony formation assay with K562 cells stably expressing shRNA against PHD3 or non-silencing control. Colony forming units (CFU) were counted 10 days after plating (n=2). FIG. 15G, Representative images from colony formation assays with K562 cells stably expressing shRNA against PHD3 or non-silencing control. Colonies were imaged on day 10 using an inverted microscope (Nikon Eclipse Ti-U) at 200× magnification and SPOT camera software 5.0. […] MOLM14 cells were incubated with S2E (50 μM) or vehicle for 3 days. FAO was measured following 3 h incubation with radiolabeled palmitate in the presence of S2E or vehicle. FIG. 151, PHD3 expression in MOLM14 cells following stable overexpression of vector or PHD3 (n=3). […]

MOLM14 cells [2] = assay: Cell growth (cell counting at 72 h) following PHD3 overexpression; type: cell-based, human; conditions: PHD3-overexpressing MOLM14; S2E 50 μM or metformin 1 mM
Text: FIG. 12B, Growth curves of MOLM14 and THP1 cells stably overexpressing vector or PHD3 (n=3). FIG. 12C, ATP CellTiter-Glo analysis in MOLM14 and THP1 cells stably overexpressing vector or PHD3 (n=4). FIG. 12D, Colony formation assay with MOLM14 and THP1 cells stably overexpressing vector or PHD3. Colony forming units (CFU) were counted 8 days after plating MOLM14 and 20 days after plating THP1 (n=3). FIG. 12E, Representative images from colony formation assays with MOLM14 or THP1 cells stably overexpressing vector or PHD3. MOLM14 colonies were imaged on day 8 and THP1 colonies imaged on day 20 using an inverted microscope (Nikon Eclipse Ti-U) at 200× magnification and SPOT camera software 5.0. FIG. 12F, Immunoblot showing HA-PHD3 overexpression in K562 cells. FIG. 12G and FIG. 12H, Colony formation assay and representative images from K562 cells stably expressing PHD3 or vector. CFU were counted and imaged 10 days after plating (n=3). […] Following FACS to collect PI-negative cells, 8000 cells were plated per well of a 96-well plate, and cell number at 72 h was determined by cell counting (n=3). […] Colony formation was assessed in MOLM14 cells stably overexpressing vector or PHD3 in the presence or absence of metformin (Met, 1 mM). CFU were counted 8 days after plating (n=2). […]

293T cells = assay: Palmitate oxidation (FAO assay); type: cell-based, human; conditions: low glucose, serum-free medium supplemented 5 mM for 6 h; PHD3-dependent
Experimental: FIG. 10C is a photograph of an immunoblot showing 293T cells stably expressing shRNA against PHD3 or non-targeting control were incubated 12 h in high or low nutrient media prior to analyzing ACC hydroxylation by IP and immunoblot. FIG. 10D is a photograph of an immunoblot showing ACC hydroxylation dynamically responds to cellular nutrient cues. WT immortalized MEFs were incubated in high (4.5 g/L glucose DMEM with serum) or low (1 g/L glucose DMEM without serum) nutrient medium for 6 h, or in low nutrient medium for 6 h followed by adding back high nutrient medium for 5 or 10 min. ACC was immunoprecipitated in lysis buffer containing the PHD inhibitor DMOG (1 mM) to minimize further hydroxylation in the lysis buffer. Hydroxylation was detected by immunoblot. FIG. 10E is a bar graph showing the impact of PHD3 knockdown on the ability of immortalized MEFs to modulate palmitate oxidation levels in response to low or high nutrient medium (n=3). […] FIG. 10G is a bar graph showing short, medium and long chain acylcarnitine levels as measured by metabolomics analysis of 293T cells grown in high nutrient medium following stable knockdown with shRNA against PHD3 or control. […]

K562 leukemia cells = assay: Leukemia cell viability by PI staining after 96 hr drug treatment; type: cell-based, human; conditions: high-PHD3 CML line, 96 hr treatment, ranolazine 0-500 μM or etomoxir 0-200 μM
Experimental: (§1) Drug treatment and PI staining. Cells were treated 96 hr with a range of doses of etomoxir (Cayman Chemical) or ranolazine dihydrochloride (VWR/Selleck Chemicals) or vehicle. Fresh etomoxir was spiked in at 24, 48 and 72 hr. Fresh ranolazine was spiked in at 48 hr. Dosing schedules were determined by identifying the minimum number of times drug must be re-added to observe an effect on cell viability. Cell viability at 96 hr was determined by staining cells with 1 µg/ml propidium iodide (Sigma) in PBS and flow cytometry on the BD LSR-II analyzer.

low-PHD3 leukemia cells = assay: as above; type: cell-based, human; conditions: 96 hr treatment, ranolazine 0-500 μM or etomoxir 0-200 μM
Experimental: as §1

MEGO1 = assay: as above; type: cell-based, human; conditions: high-PHD3 CML cell line, high dose of ranolazine, compared to low-PHD3 AML cells
Experimental: as §1

recombinant PHD3 = recombinant PHD3 (Homo sapiens, UniProt Q9H6Z9); assay: In vitro hydroxylation assay with ACC2 peptides; type: biochemical; conditions: 12.5 nmol synthetic peptide; radioactivity-based, [14C]CO2 release
Sequence of recombinant PHD3 (Q9H6Z9 whole entry): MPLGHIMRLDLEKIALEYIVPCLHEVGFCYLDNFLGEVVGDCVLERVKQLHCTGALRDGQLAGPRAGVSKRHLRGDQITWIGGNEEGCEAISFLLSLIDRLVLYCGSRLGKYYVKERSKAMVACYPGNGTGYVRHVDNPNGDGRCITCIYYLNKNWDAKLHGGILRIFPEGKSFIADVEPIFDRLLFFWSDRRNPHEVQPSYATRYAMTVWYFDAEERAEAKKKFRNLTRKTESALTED
Experimental: In vitro hydroxylation assay. The in vitro hydroxylation assay was modified from a previously described assay based on the fact that hydroxylation by PHDs results in decarboxylation of […]-ketoglutarate to form carbon dioxide. Briefly, […] reactions were performed in glass vials sealed with rubber stoppers and parafilm wax. Reaction mixtures containing 12.5 nmol synthetic peptide (Peptide 2.0), 50 mM Tris/HCl (pH 7.8), 2 mg/ml BSA, 4200 U/ml catalase, 0.1 mM DTT, 2 mM ascorbate, 500 μM FeSO4·7H2O, 0.02 μmol [1-^14C][…]-ketoglutarate (Perkin Elmer) and 1.2 μg recombinant PHD3 were incubated at 370 for 30 min. Reactions were stopped by injection of 0.25 ml of 1 M KH2PO4 (pH 5) into vials. Vials were agitated on slow speed for 30 min at room temperature to allow capture of [^14C]CO2 onto solubilized Whatman paper positioned at the top of the vials. CPM were measured by scintillation counts on filter paper.

HepG2 cells = assay: Palmitate oxidation (FAO assay); type: cell-based, human; conditions: etomoxir 100 μM during the 2 h FAO assay; figure printed for PHD3 overexpression, etomoxir stated to achieve a similar level
Experimental: Fatty acid oxidation. For FAO assays, cells in 12 well-plates were pre-incubated with 100 µM palmitate or hexanoate and 1 mM carnitine for 4 hr in serum-free low glucose media, unless otherwise noted. Cells were then changed to 600 l media containing 1 μCi [9,10(n)-^3H]palmitic acid (GE Healthcare) or 1.8 μCi n-[5,6-^3H]hexanoic acid (American Radiolabeled Chemicals) and 1 mM carnitine for 2 hr. The medium was collected and eluted in columns packed with DOWEX 1X2-400 ion exchange resin (Sigma) to analyze the released ^3H20, formed during oxidation of [3H]palmitate. FAO in complete media indicates media including serum was used for pre-incubation and FAO analysis. Basal FAO indicates cells were not pre-incubated with fatty acids prior to FAO analysis. For all FAO experiments, counts per minute (CPM) were normalized to protein content in cell lysates.

KU812 = assay: Leukemia cell viability by PI staining after 96 hr drug treatment; type: cell-based, human; conditions: low-PHD3 CML cell line; 96 hr treatment with etomoxir
Experimental: as §1

ACC2 = target: T1, ACC2 (Homo sapiens, UniProt O00763); assay: ACC activity assay in 293T cell lysates; type: biochemical; conditions: lysates overexpressing ACC2; citrate 2 mM
T1 construct: expressed in transfected cells; host or cells: 293T cells, whole-cell lysate (50 ug protein per reaction)
T1 sequence (O00763 whole entry): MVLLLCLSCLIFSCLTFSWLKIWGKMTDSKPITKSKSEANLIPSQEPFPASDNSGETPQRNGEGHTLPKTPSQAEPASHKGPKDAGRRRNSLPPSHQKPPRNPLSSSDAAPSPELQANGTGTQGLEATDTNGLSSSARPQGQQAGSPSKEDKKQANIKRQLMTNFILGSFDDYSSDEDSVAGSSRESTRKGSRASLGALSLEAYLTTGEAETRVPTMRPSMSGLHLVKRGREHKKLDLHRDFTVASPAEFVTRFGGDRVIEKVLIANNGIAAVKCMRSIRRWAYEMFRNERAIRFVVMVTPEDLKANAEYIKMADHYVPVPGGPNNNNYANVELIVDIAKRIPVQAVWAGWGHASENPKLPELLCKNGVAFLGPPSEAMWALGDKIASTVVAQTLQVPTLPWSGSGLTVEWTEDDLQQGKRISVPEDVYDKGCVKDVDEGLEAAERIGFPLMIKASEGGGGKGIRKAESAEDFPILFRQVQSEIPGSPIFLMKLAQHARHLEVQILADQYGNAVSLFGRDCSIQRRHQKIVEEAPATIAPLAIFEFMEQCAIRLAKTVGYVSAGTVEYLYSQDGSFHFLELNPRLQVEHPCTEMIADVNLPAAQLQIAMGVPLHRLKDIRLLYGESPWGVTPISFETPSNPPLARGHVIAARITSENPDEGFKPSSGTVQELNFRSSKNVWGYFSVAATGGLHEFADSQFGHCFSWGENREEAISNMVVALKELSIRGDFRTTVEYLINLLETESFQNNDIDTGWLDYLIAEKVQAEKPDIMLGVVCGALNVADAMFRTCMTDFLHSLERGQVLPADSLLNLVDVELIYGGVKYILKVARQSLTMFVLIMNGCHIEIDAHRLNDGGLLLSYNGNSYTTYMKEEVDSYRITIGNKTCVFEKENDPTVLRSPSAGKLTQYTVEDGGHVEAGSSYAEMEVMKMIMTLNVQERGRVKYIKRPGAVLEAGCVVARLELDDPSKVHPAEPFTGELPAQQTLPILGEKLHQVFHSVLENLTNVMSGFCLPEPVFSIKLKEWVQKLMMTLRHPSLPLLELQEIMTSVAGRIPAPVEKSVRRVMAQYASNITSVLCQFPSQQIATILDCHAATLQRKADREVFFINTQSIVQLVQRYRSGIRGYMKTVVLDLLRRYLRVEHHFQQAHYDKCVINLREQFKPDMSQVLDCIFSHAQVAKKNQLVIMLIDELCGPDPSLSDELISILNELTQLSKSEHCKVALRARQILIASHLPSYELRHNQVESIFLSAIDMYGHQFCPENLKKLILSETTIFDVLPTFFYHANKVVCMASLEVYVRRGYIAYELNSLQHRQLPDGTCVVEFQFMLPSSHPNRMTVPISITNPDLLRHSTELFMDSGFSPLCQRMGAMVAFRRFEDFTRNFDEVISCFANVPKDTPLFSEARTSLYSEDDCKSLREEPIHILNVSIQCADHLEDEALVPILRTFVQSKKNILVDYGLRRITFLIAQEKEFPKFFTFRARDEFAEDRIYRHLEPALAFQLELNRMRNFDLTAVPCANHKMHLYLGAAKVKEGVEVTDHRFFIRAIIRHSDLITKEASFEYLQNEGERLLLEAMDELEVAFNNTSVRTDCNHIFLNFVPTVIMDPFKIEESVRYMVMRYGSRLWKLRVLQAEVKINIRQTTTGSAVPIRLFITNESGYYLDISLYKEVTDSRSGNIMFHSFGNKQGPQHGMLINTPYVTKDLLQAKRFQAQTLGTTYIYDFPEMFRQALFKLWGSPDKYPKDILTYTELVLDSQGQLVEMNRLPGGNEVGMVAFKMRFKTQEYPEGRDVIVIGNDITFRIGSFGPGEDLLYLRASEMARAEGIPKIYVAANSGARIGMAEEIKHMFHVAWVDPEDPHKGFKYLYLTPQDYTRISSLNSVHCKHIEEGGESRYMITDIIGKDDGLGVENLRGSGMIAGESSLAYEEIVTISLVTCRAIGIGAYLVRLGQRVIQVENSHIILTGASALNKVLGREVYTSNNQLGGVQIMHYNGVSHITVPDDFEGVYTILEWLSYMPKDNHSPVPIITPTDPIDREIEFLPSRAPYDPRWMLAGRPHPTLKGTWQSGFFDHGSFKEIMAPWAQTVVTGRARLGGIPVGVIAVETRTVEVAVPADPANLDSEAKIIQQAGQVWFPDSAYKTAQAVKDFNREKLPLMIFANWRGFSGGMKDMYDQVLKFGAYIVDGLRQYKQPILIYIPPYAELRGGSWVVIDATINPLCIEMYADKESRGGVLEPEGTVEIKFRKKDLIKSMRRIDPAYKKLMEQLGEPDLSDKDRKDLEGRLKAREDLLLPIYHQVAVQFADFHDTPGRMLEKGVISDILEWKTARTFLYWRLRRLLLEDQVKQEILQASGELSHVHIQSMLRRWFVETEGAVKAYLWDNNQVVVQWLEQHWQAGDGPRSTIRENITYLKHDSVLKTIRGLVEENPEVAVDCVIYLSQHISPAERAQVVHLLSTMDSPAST
Experimental: ACC activity assay. Reactions were performed as previously described, with the exception of using 16.7 mM MgCl2 instead. 50 μg protein lysate was used for each reaction. Following addition of 1 N HCl to quench reactions and convert remaining [^14C]bicarbonate (American Radiolabeled Chemicals) to CO2, reactions were evaporated 2 hours at 600 and 15 min at 850 in a thermo shaker. ACC activity was calculated as incorporation of [^14C]bicarbonate into [^14C]malonyl CoA (the acid and heat stable product) as measured by scintillation counting.

MOLM14 cells [3] = assay: Colony formation assay (soft agar); type: cell-based, human; conditions: for colony formation (growth): PHD3-overexpressing MOLM14, metformin 1 mM, CFU counted 8 days after plating
Text: FIG. 12B, Growth curves of MOLM14 and THP1 cells stably overexpressing vector or PHD3 (n=3). FIG. 12C, ATP CellTiter-Glo analysis in MOLM14 and THP1 cells stably overexpressing vector or PHD3 (n=4). FIG. 12D, Colony formation assay with MOLM14 and THP1 cells stably overexpressing vector or PHD3. Colony forming units (CFU) were counted 8 days after plating MOLM14 and 20 days after plating THP1 (n=3). FIG. 12E, Representative images from colony formation assays with MOLM14 or THP1 cells stably overexpressing vector or PHD3. MOLM14 colonies were imaged on day 8 and THP1 colonies imaged on day 20 using an inverted microscope (Nikon Eclipse Ti-U) at 200× magnification and SPOT camera software 5.0. FIG. 12F, Immunoblot showing HA-PHD3 overexpression in K562 cells. FIG. 12G and FIG. 12H, Colony formation assay and representative images from K562 cells stably expressing PHD3 or vector. CFU were counted and imaged 10 days after plating (n=3). […] Cells were treated with S2E (50 μM, Sigma), metformin (1 mM, Sigma) or vehicle following viral infection with PHD3 and throughout the duration of the experiment. Infected cells were selected with puromycin. Following FACS to collect PI-negative cells, 8000 cells were plated per well of a 96-well plate, and cell number at 72 h was determined by cell counting (n=3). […] Colony formation was assessed in MOLM14 cells stably overexpressing vector or PHD3 in the presence or absence of metformin (Met, 1 mM). CFU were counted 8 days after plating (n=2). FIG. 12K, qPCR analysis of PHD3 gene expression in primary human CD34+ cells from bone marrow filtrate of a healthy donor or AML patient samples (690a, 2093 and 2266). PPIA was used as a reference gene. FIG. 12L, ATP CellTiter-Glo analysis of cell viability in AML patient samples following stable overexpression of empty vector or PHD3 (n=4).

## CC(C)(C)c1ccc(N2C[C@@H](COc3ccc(C(=O)O)cc3)CC2=O)cc1 [S2E]
MOLM14 cells [1]
  palmitate oxidation (FAO): increases palmitate oxidation; also recorded: amplified FAO
MOLM14 cells [2]
  cell growth at 72 h: restores cell growth; also recorded: rescued Molm14 cell growth

## COC(=O)CCC(=O)C(=O)OC [dimethyl ketoglutarate]
293T cells
  palmitate oxidation: repressed palmitate oxidation

## COc1ccccc1OCC(O)CN1CCN(CC(=O)Nc2c(C)cccc2C)CC1 (centres unmarked) [ranolazine]
K562 leukemia cells
  cell viability: viability was largely maintained
low-PHD3 leukemia cells
  cell viability: drastically reduced cell viability
MEGO1
  sensitivity (viability): less sensitive

## AGQVWFPDSAYKTAQ [peptide containing P2131]
Recombinant PHD3
  hydroxylation by recombinant PHD3: not

## CCOC(=O)[C@@]1(CCCCCCOc2ccc(Cl)cc2)CO1 [etomoxir]
HepG2 cells
  repression of FAO (palmitate oxidation): over 50%
low-PHD3 leukemia cells
  cell viability: substantial cell death
KU812
  sensitivity (viability): sensitive

## O=C(O)CC(O)(CC(=O)O)C(=O)O [citrate]
ACC2
  ACC activity: activated

## ERIGFPLMIKASEGGGGK [ACC2 peptide containing P450]
Recombinant PHD3
  hydroxylation by recombinant PHD3: shown to hydroxylate

## CN(C)C(=N)N=C(N)N [metformin]
MOLM14 cells [3]
  colony formation (growth): improved growth; also recorded: partially rescues
MOLM14 cells [3]; listed as Metformin
  colony formation (growth): partially blocks the growth inhibitory effects
MOLM14 cells [3]; metformin on its own, 1 mM
  cell growth in soft agar: impaired cell growth
MOLM14 cells [2]
  cell growth at 72 h: trend toward rescued growth

## ARLELDDPSKVHPAE
Recombinant PHD3
  hydroxylation by recombinant PHD3: not
